From US12397058B2, “Metabolically stable prodrugs” (TSRL, Inc., priority 2018, dated 2025)
Read-outs that look alike come from different tables or passages of the source.

Columns and labels:
HSV2 G = assay: Primary CPE reduction assay in HFF cells, HSV2 G; format: cell-based, Herpes Simplex Virus 2
Experimental: (§1) Screening Assays for HSV-1, HSV-2, CMV, and VZV
(§2) Cells. Human foreskin fibroblast (HFF) cells were prepared from human foreskin tissue. The tissue was incubated at 4° C. for 4 h in Clinical Medium and then placed in phosphate buffered saline (PBS) to remove the red blood cells, and resuspended in trypsin/EDTA solution. The tissue suspension was incubated at 37° C. and gently agitated to disperse the cells, which were collected by centrifugation. Cells were resuspended in 4 ml Clinical Medium and placed in a flask and incubated at 37° C. in a humidified CO2 incubator for 24 h. The media was then replaced with fresh Clinical Medium and the cell growth was monitored daily until a confluent monolayer has formed. The HFF cells were then expanded through serial passages in standard growth medium of MEM with Earl's salts supplemented with 10% FBS and antibiotics. The cells were passaged routinely and used for assays at or below passage 10.
(§3) Primary Cytopathic Effect (CPE) Reduction Assay. Low passage (3-10) HFF cells were trypsinized, counted, and seeded into 96 well tissue culture plates in 0.1 ml of MEM supplemented with 10% FBS. The cells were then incubated for 24 h at 37° C. The media was then removed and 100 μl of MEM containing 2% FBS was added to all but the first row. In the first row, 125 μl of media containing the experimental drug was added in triplicate wells. Media alone was added to both cell and virus control wells. The drug in the first row of wells was then diluted serially 1:5 throughout the remaining. The plates were then incubated for 60 min and 100 μl of a virus suspension was added to each well, excluding cell control wells which received 100 μl of MEM. The plates were then incubated at 37° C. in a CO2 incubator for three days for HSV-1 and HSV-2, 10 days for VZV, or 14 d for CMV. After the incubation period, media was aspirated and the cells stained with crystal violet in formalin for 4 h. The stain was then removed and the plates were rinsed until all excess stain was removed. The plates were allowed to dry for 24 h and the amount of CPE in each row determined using a BioTek Multiplate Autoreader. EC50 and CC50 values were determined by comparing drug treated and untreated cells using a computer program.

HSV1 E377 = assay: microbe, parasite or virus in culture; format: cell-based, Herpes Simplex Virus 1
Experimental: as §1, §2, §3

hCMV1 AD169 = assay: Primary CPE reduction assay in HFF cells, hCMV AD169; format: cell-based, human Cytomegalovirus
Experimental: as §1, §2, §3

VZV Ellen = assay: microbe, parasite or virus in culture; format: cell-based, Vericella Zoster Virus
Experimental: as §1, §2, §3

mCMV Smith = assay: Primary CPE reduction assay, mCMV Smith; format: cell-based, murine Cytomegalovirus; conditions: for EC50: Murid betaherpesvirus 1, read-out: EC50 (50% reduction in the Cytopathic Effect of the virus)
hCMV2 GDGRK17 = assay: Primary CPE reduction assay in HFF cells, hCMV GDGRK17; format: cell-based, human Cytomegalovirus; conditions: for EC50: Human betaherpesvirus 5, HFF, read-out: EC50 (50% reduction in the Cytopathic Effect of the virus); for TI (therapeutic index derived from EC50/CC50): hCMV2 GDGRK17, HFF cells
Experimental: as §1, §2, §3

[1] = system: Human Cytomegalovirus Strain AD169; assay: Additional study versus Human Cytomegalovirus Strain AD169 in HFF cells (procedures of US 2011/0263535 A1); format: cell-based; conditions: for Therapeutic index EC90/HFF Cytotoxicity 50%: Human Cytomegalovirus Strain AD169 in HFF cells; for EC90: Human betaherpesvirus 5, AD169, HFF
Experimental: Additional studies in HFF cells were performed using the procedures as outlined in US Patent Application Publication No: 2011/0263535 A1 with compounds of 120, 121, and 122. Each of the compounds were tested versus Human Cytomegalovirus Strain AD169 in HFF cells using ganciclovir as a comparator.

[2] = Human alphaherpesvirus 2, read-out: EC50 (50% reduction in the Cytopathic Effect of the virus), HSV2 G, HFF cells
[3] = Human alphaherpesvirus 1, read-out: EC50 (50% reduction in the Cytopathic Effect of the virus), HSV1 E377, HFF cells
[4] = Human betaherpesvirus 5, read-out: EC50 (50% reduction in the Cytopathic Effect of the virus), hCMV1 AD169, HFF cells
[5] = Human betaherpesvirus 5, AD169, HFF, read-out: EC50 (50% reduction in the Cytopathic Effect of the virus)
[6] = Human alphaherpesvirus 3, HFF, read-out: EC50 (50% reduction in the Cytopathic Effect of the virus)
[7] = Human alphaherpesvirus 2, HFF, read-out: EC50 (50% reduction in the Cytopathic Effect of the virus)
[8] = Human alphaherpesvirus 1, HFF, read-out: EC50 (50% reduction in the Cytopathic Effect of the virus)

SMILES	EC50 (HSV2 G; [2]) [nM]	EC50 (HSV1 E377; [3]) [nM]	EC50 (hCMV1 AD169; [4]) [nM]	TI (therapeutic index derived from EC50/CC50) (hCMV1 AD169; hCMV1 AD169, HFF cells)	EC50 (VZV Ellen; Human alphaherpesvirus 3, read-out: EC50 (50% reduction in the Cytopathic Effect of the virus), VZV Ellen, HFF cells) [nM]	TI (therapeutic index derived from EC50/CC50) (VZV Ellen; VZV Ellen, HFF cells)	TI (therapeutic index derived from CC50/EC50) (HSV2 G; HSV2 G, HFF cells)	EC50 (mCMV Smith; mCMV Smith) [nM]	TI (therapeutic index derived from EC50/CC50) (mCMV Smith; mCMV Smith)	TI (therapeutic index derived from EC50/CC50) (HSV1 E377; HSV1 E377, HFF cells)	EC50 (hCMV2 GDGRK17) [nM]	TI (therapeutic index derived from EC50/CC50) (hCMV2 GDGRK17)	EC50 (hCMV1 AD169; [5]) [nM]	EC50 (VZV Ellen; [6]) [nM]	EC50 (HSV2 G; [7]) [nM]	EC50 (mCMV Smith) [nM]	Therapeutic index EC90/HFF Cytotoxicity 50% [1]	EC90 [1] [nM]	EC50 (HSV1 E377; [8]) [nM]
Nc1nc2c(ncn2COCCO)c(=O)[nH]1 [Acyclovir, reference compound]	380	960	–	–	–	–	–	–	–	–	–	–	–	–	–	–	–	–	–
CC1(CCCCCCCCCCCCS(=O)(=O)CCCOP(=O)(O)CO[C@H](CO)Cn2cnc(N)cc2=O)COC1 [Compound 110, Ammonium 3-((12-(3-methyloxetan-3-yl)dodecyl)sulfonyl)propyl Hydrogen ((((S)-1-(4-amino-6-oxopyrimidin-1(6H)-yl)-3-hydroxypropan-2-yl)oxy)methyl)phosphonate]	40	160	10	184	10	225	>1250	< 0.3	2213	>313	< 0.3	>3125	–	–	–	–	–	–	–
CCOC(=O)P(=O)(OCCCS(=O)(=O)CCCCC1CCC1)OCCCS(=O)(=O)CCCCC1CCC1 [Compound 119, Ethyl (bis(3-((4-cyclobutylbutyl)sulfonyl)propoxy)phosphoryl)formate]	–	–	> 30000	<3	–	–	–	–	–	–	–	–	–	–	–	–	–	–	–
N.Nc1ccn(C[C@@H](CO)OCP(=O)(O)OCCCS(=O)(=O)CCCCCCCCCCC2CCC2)c(=O)n1 [Compound 120, Ammonium 3-((10-cyclobutyldecyl)sulfonyl)propyl hydrogen ((((S)-1-(4-amino-2-oxopyrimidin-1(2H)-yl)-3-hydroxypropan-2-yl)oxy)methyl)phosphonate]	–	–	–	74	–	25	>3950	–	>3125	149	< 0.3	>2772	8	20	10	< 0.3	>37	< 20	70
N.Nc1ccn(C[C@@H](CO)OCP(=O)(O)OCCCS(=O)(=O)CCCCCCCCCCCCC2CCC2)c(=O)n1 [Compound 121, Ammonium 3-((12-cyclobutyldodecyl)sulfonyl)propyl hydrogen ((((S)-1-(4-amino-2-oxopyrimidin-1(2H)-yl)-3-hydroxypropan-2-yl)oxy)methyl)phosphonate]	–	–	–	>19	–	23	498	–	>3125	1159	< 0.3	>2753	< 10	10	10	< 0.3	>15	< 20	10
